Laboratory results published in patent publication US9447100B2, “Substituted pyrazolo[1,5-A] pyrimidines as calcium receptor modulating agents” (Takeda Pharmaceutical Company Limited, priority 2002, dated 2016).
Where a name gives a salt, the structure may show the parent alone.

melting point [°C]	Structure (SMILES)
138 to 139	CCc1ccc(C(CC)(CC)NC(=O)c2c(C)nn3c2N[C@@H](c2ccccc2F)CC3(C)C)cc1 (as salt: HCl) [Example 1089, (5R)-N-(1-ethyl-1-(4-ethylphenyl)propyl)-5-(2-fluorophenyl)-2,7,7-trimethyl-4,5,6,7-tetrahydropyrazolo[1,5-a]pyrimidine-3-carboxamide]
173 to 174	CCC(CC)(NC(=O)c1c(C)nn2c1N[C@H](c1ccccc1Cl)CC2(C)C)c1ccc(C)cc1 (as salt: HCl) [Example 1090, (5S)-5-(2-chlorophenyl)-N-(1-ethyl-1-(4-methylphenyl)propyl)-2,7,7-trimethyl-4,5,6,7-tetrahydropyrazolo[1,5-a]pyrimidine-3-carboxamide]
140 to 142	CCC1(CC)C[C@@H](O)CN1C(=O)c1c(C)nn2c1N[C@@H](c1ccccc1)CC2(C)C (as salt: HCl) [Example 1098, (3R)-5,5-diethyl-1-(((5R)-2,7,7-trimethyl-5-phenyl-4,5,6,7-tetrahydropyrazolo[1,5-a]pyrimidin-3-yl)carbonyl)-3-pyrrolidinol]
247 to 249	CCC1(CC)C[C@H](O)CN1C(=O)c1cnn2c1N[C@@H](c1ccccc1)CC2(C)C (as salt: HCl) [Example 1118, (3S)-1-(((5R)-7,7-dimethyl-5-phenyl-4,5,6,7-tetrahydropyrazolo[1,5-a]pyrimidin-3-yl)carbonyl)-5,5-diethyl-3-pyrrolidinol]
149 to 150	Cc1nn2c(c1C(=O)OC1C(C)(C)[C@H]3CC[C@]1(C)C3)NC(c1ccccc1)CC2(C)C (stereo partly drawn) (as salt: HCl) [Example 1141, (1R,4S)-1,3,3-trimethylbicyclo[2.2.1]hept-2-yl 2,7,7-trimethyl-5-phenyl-4,5,6,7-tetrahydropyrazolo[1,5-a]pyrimidine-3-carboxylate]
190 to 192	Cc1nn2c(c1C(=O)O)NC(c1ccccc1)CC2(C)C (single isomer, unassigned; (+)) [Example 1020, (+)-2,7,7-trimethyl-5-phenyl-4,5,6,7-tetrahydropyrazolo[1,5-a]pyrimidine-3-carboxylic acid]
150 to 151	Cc1nn2c(c1C(=O)O)NC(c1ccccc1F)CC2(C)C (single isomer, unassigned; (+)) [Example 1024, (+)-5-(2-fluorophenyl)-2,7,7-trimethyl-4,5,6,7-tetrahydropyrazolo[1,5-a]pyrimidine-3-carboxylic acid]
180 to 181	CCC(C#N)NC(=O)c1cnn2c1N[C@H](c1ccccc1)C[C@@H]2C(F)(F)F (stereo in doubt) [Example 283, N-(1-cyanopropyl)-5-phenyl-7-(trifluoromethyl)-4,5,6,7-tetrahydropyrazolo[1,5-a]pyrimidine-3-carboxamide]
201 to 202	CCC(C#N)NC(=O)c1cnn2c1N[C@H](c1ccccc1)C[C@@H]2C(F)(F)F (stereo in doubt) [Example 284, N-(1-cyanopropyl)-5-phenyl-7-(trifluoromethyl)-4,5,6,7-tetrahydropyrazolo[1,5-a]pyrimidine-3-carboxamide]
244 to 245	O=C(CNC(=O)c1cnn2c1N[C@H](c1ccccc1)C[C@@H]2C(F)(F)F)c1cc2ccccc2o1 (stereo in doubt) [Example 285, N-(2-(1-benzofuran-2-yl)-2-oxoethyl)-5-phenyl-7-(trifluoromethyl)-4,5,6,7-tetrahydropyrazolo[1,5-a]pyrimidine-3-carboxamide]
141 to 142	O=C(NCC(=O)c1cccc2ccccc12)c1cnn2c1N[C@H](c1ccccc1)C[C@@H]2C(F)(F)F (stereo in doubt) [Example 286, N-(2-(1-naphthyl)-2-oxoethyl)-5-phenyl-7-(trifluoromethyl)-4,5,6,7-tetrahydropyrazolo[1,5-a]pyrimidine-3-carboxamide]
154 to 155	O=C(CNC(=O)c1cnn2c1N[C@H](c1ccccc1)C[C@@H]2C(F)(F)F)c1ccccc1Cl (stereo in doubt) [Example 289, N-(2-(2-chlorophenyl)-2-oxoethyl)-5-phenyl-7-(trifluoromethyl)-4,5,6,7-tetrahydropyrazolo[1,5-a]pyrimidine-3-carboxamide]
271 to 272	CC(NC(=O)c1cnn2c1N[C@H](c1ccccc1)C[C@@H]2C(F)(F)F)C(=O)c1ccccc1 (stereo in doubt) [Example 290, N-(1-methyl-2-oxo-2-phenylethyl)-5-phenyl-7-(trifluoromethyl)-4,5,6,7-tetrahydropyrazolo[1,5-a]pyrimidine-3-carboxamide]
178 to 179	CC(NC(=O)c1cnn2c1N[C@H](c1ccccc1)C[C@@H]2C(F)(F)F)C(=O)c1ccccc1 (stereo in doubt) [Example 291, N-(1-methyl-2-oxo-2-phenylethyl)-5-phenyl-7-(trifluoromethyl)-4,5,6,7-tetrahydropyrazolo[1,5-a]pyrimidine-3-carboxamide]
213 to 214	COC(=O)C1(NC(=O)c2cnn3c2N[C@H](c2ccccc2)C[C@@H]3C(F)(F)F)CCCCC1 (stereo in doubt) [Example 367, methyl 1-(((5-phenyl-7-(trifluoromethyl)-4,5,6,7-tetrahydropyrazolo[1,5-a]pyrimidin-3-yl)carbonyl)amino)cyclohexane carboxylate]
236 to 237	O=C(NC1(C(=O)O)CCCCC1)c1cnn2c1N[C@H](c1ccccc1)C[C@@H]2C(F)(F)F (stereo in doubt) [Example 369, 1-(((5-phenyl-7-(trifluoromethyl)-4,5,6,7-tetrahydropyrazolo[1,5-a]pyrimidin-3-yl)carbonyl)amino)cyclohexane carboxylic acid]

melting point [°C]	Structure (SMILES)
262 to 263	O=C(NC1(C(=O)Nc2ccccc2)CCCCC1)c1cnn2c1N[C@H](c1ccccc1)C[C@@H]2C(F)(F)F (stereo in doubt) [Example 371, N-(1-(anilinocarbonyl)cyclohexyl)-5-phenyl-7-(trifluoromethyl)-4,5,6,7-tetrahydropyrazolo[1,5-a]pyrimidine-3-carboxamide]
216 to 217	O=C(On1nnc2ccccc21)c1cnn2c1N[C@H](c1ccccc1)C[C@@H]2C(F)(F)F (stereo in doubt) [Example 372, 1-(((5-phenyl-7-(trifluoromethyl)-4,5,6,7-tetrahydropyrazolo[1,5-a]pyrimidin-3-yl)carbonyl)oxy)-1H-1,2,3-benzotriazole]
243 to 244	O=C(c1cnn2c1N[C@H](c1ccccc1)C[C@@H]2C(F)(F)F)N(C1CCCCC1)C1CCCCC1 (stereo in doubt) [Example 373, N,N-dicyclohexyl-5-phenyl-7-(trifluoromethyl)-4,5,6,7-tetrahydropyrazolo[1,5-a]pyrimidine-3-carboxamide]
277 to 278	NC(=O)c1cnn2c1N[C@H](c1ccccc1)C[C@@H]2C(F)(F)F (stereo in doubt) [Example 403, 5-phenyl-7-(trifluoromethyl)-4,5,6,7-tetrahydropyrazolo[1,5-a]pyrimidine-3-carboxamide]
120 to 122	CCOC(=O)c1cnn2c1NC(c1ccc3ccccc3c1)CC2C(F)(F)F (centres unmarked) [Example 2, ethyl 5-(2-naphthyl)-7-(trifluoromethyl)-4,5,6,7-tetrahydropyrazolo[1,5-a]pyrimidine-3-carboxylate]
105 to 109	CCOC(=O)c1cnn2c1NC(c1ccc(OC)cc1)CC2C(F)(F)F (centres unmarked) [Example 3, ethyl 5-(4-methoxyphenyl)-7-(trifluoromethyl)-4,5,6,7-tetrahydropyrazolo[1,5-a]pyrimidine-3-carboxylate]
86	CCOC(=O)c1cnn2c1NC(c1ccco1)CC2C(F)(F)F (centres unmarked) [Example 14, ethyl 5-(2-furyl)-7-(trifluoromethyl)-4,5,6,7-tetrahydropyrazolo[1,5-a]pyrimidine-3-carboxylate]
143 to 145	O=C(O)c1cnn2c1NC(c1ccc3ccccc3c1)CC2C(F)(F)F (centres unmarked) [Example 22, 5-(2-naphthyl)-7-(trifluoromethyl)-4,5,6,7-tetrahydropyrazolo[1,5-a]pyrimidine-3-carboxylic acid]
154 to 155	COc1ccc(C2CC(C(F)(F)F)n3ncc(C(=O)O)c3N2)cc1 (centres unmarked) [Example 25, 5-(4-methoxyphenyl)-7-(trifluoromethyl)-4,5,6,7-tetrahydropyrazolo[1,5-a]pyrimidine-3-carboxylic acid]
186 to 187	O=C(O)c1cnn2c1NC(c1ccc(Cl)cc1)CC2C(F)(F)F (centres unmarked) [Example 26, 5-(4-chlorophenyl)-7-(trifluoromethyl)-4,5,6,7-tetrahydropyrazolo[1,5-a]pyrimidine-3-carboxylic acid]
165 to 167	CC1CC(c2ccccc2)Nc2c(C(=O)O)cnn21 (centres unmarked) [Example 27, 7-methyl-5-phenyl-4,5,6,7-tetrahydropyrazolo[1,5-a]pyrimidine-3-carboxylic acid]
165 to 168	CCc1ccc(C2CC(C(F)(F)F)n3ncc(C(=O)O)c3N2)cc1 (centres unmarked) [Example 28, 5-(4-ethylphenyl)-7-(trifluoromethyl)-4,5,6,7-tetrahydropyrazolo[1,5-a]pyrimidine-3-carboxylic acid]
156 to 157	O=C(O)c1cnn2c1NC(c1ccco1)CC2C(F)(F)F (centres unmarked) [Example 29, 5-(2-furyl)-7-(trifluoromethyl)-4,5,6,7-tetrahydropyrazolo[1,5-a]pyrimidine-3-carboxylic acid]
189 to 190	COc1ccccc1C1CC(C(F)(F)F)n2ncc(C(=O)O)c2N1 (centres unmarked) [Example 30, 5-(2-methoxyphenyl)-7-(trifluoromethyl)-4,5,6,7-tetrahydropyrazolo[1,5-a]pyrimidine-3-carboxylic acid]
177 to 179	O=C(O)c1cnn2c1NC(c1ccccc1Cl)CC2C(F)(F)F (centres unmarked) [Example 32, 5-(2-chlorophenyl)-7-(trifluoromethyl)-4,5,6,7-tetrahydropyrazolo[1,5-a]pyrimidine-3-carboxylic acid]
194 to 195	O=C(O)c1cnn2c1NC(c1cccc(Cl)c1)CC2C(F)(F)F (centres unmarked) [Example 33, 5-(3-chlorophenyl)-7-(trifluoromethyl)-4,5,6,7-tetrahydropyrazolo[1,5-a]pyrimidine-3-carboxylic acid]
